{"source": "patent US20210221774A1", "about": "“TREATMENT OF POST-TRAUMATIC SYNDROME DISORDER” (Aché Laboratórios Farmacêuticos S.A, priority 2017, published 2021)", "tested_on": "c-fos expression in key brain regions involved in stress response", "test": "Single Prolonged Stress (SPS) model, count of c-fos positive neurons in brain regions", "type": "in vivo", "details": "mice, IA1-29 30 mg/kg p.o. given before SPS, locus ceruleus, amygdala, hypothalamus, bed nuclei stria terminalis (FIG. 1)", "experimental": "The quinazolinone of the invention was named IA1-29 and was tested in an in vivo model that mimics the activation that occurs in the brain after a prolonged stress stimulus.\nThe effects of the administration of IA1-29 at 30 mg/kg p.o. in brain activation were assessed in mice subjected to the Single Prolonged Stress (SPS) model. The SPS protocol is a well established model of PTSD that combines multiple stressors (physical restraint, forced swim, predator scent and ether anesthesia (Borghans & Homberg, 2015; Yamamoto et al., 2009)). The activation of specific brain regions was determined by counting the number of neurons expressing the c-fos protein, an immediate early gene product that can be used as a marker of cell activation in individual neurons. […] The count of c-fos positive neurons in some of these regions can be visualized in FIG. 1. The experiment comprised three different groups (n=10 per group): mice not subjected to the SPS protocol (Sham), mice subjected to the SPS model (SPS) and animals submitted to the SPS protocol but pre-treated with IA1-29 at 30 mg/kg (IA1-29+SPS). The brain regions exemplified in FIG. 1 are locus ceruleus (FIG. 1A), amygdala (FIG. 1B), hypothalamus (FIG. 1C) and bed nuclei stria terminalis (FIG. 1D). […]"}
{"smiles": "COc1ccccc1N1CCN(CCn2cnc3ccccc3c2=O)CC1", "note": "[IA1-29, 3-(2-(4-(2-methoxyphenyl)piperazine-1-yl)ethyl) quinazoline-4(3H)-one]", "values": [{"measurement": "SPS-induced c-fos expression in key brain regions involved in stress response (count of c-fos positive neurons)", "value": "suppressed"}]}
